Experimental data as given in US20130053357A1, “SKIN IRRITATION SUPPRESSANT AND TRANSDERMAL PREPARATION” (HISAMITSU PHARMACEUTICAL CO., INC., priority 2010, published 2013).
Structures can show the parent of a compound that is named as a salt. Where two headings read alike, the source gives them in different places.

What was measured:
[1] = system: human three-dimensional culture epidermal model (LabCyte EPI-MODEL); experiment: Suppression by cholesterol of skin irritation mediator production induced by asenapine and LADA in a human epidermal cell (Experiment 6); type: cell-based; conditions: without or with 1% by mass of cholesterol
Description: (§1) A human three-dimensional epidermal culture model obtained by multilayer-culturing a human normal epidermal cell (LabCyte EPI-MODEL, manufactured by Japan Tissue Engineering Co., Ltd.) was used. LabCyte is a cultured skin cultured in a transwell. For the experiment, LabCyte was used with the transwell.
(§2) The experiment was conducted as below. First, LabCyte was put into a 24-well assay plate. Then, 1 ml of assay medium (Japan Tissue Engineering Co., Ltd.) was added so that it was brought into contact with a bottom surface of the cultured skin in each well of the 24-well assay plate, and was pre-cultured in an incubator with 5% of carbon dioxide concentration at 37° C. for 1 hour.
(§3) The test solutions of each group were added to the cells, the culture solutions incubated for 48 hours were collected, and a production amount of each skin irritation mediator was measured. The skin irritation mediator was measured by using a commercially available ELISA kit (manufactured by R&D Systems, Inc.). A relative production amount of the skin irritation mediator in each test substance was calculated as below, when the production amount of the skin irritation mediator in the PMA Only Group was set to 100.
Cholesterol was used as a test substance. Asenapine and lauric acid diethanolamide (LADA) were used as the cutaneous irritants.
Tests were conducted by the following group composition. • Solvent Group: A group including only vehicle. Olive oil was used as a vehicle. • Skin Irritant Only Group: A group with addition of only cutaneous irritant dispersed in a vehicle, as a test solution. The concentration of asenapine maleate to be added was 0.6% (asenapine group), and that of LADA was 0.03% (LADA group). • Skin Irritant Plus Cholesterol Group: A group with addition of the drug and 1% by mass of cholesterol which were dispersed in a vehicle, as a test solution.
The experiment was conducted while other conditions were set in the same manner as Experiment 1.

[2] = system: human three-dimensional culture epidermal model (LabCyte EPI-MODEL); experiment: Production of skin irritation mediators induced by PMA in human three-dimensional epidermal culture model (Experiment 1); type: cell-based; conditions: for activity at 0.01 % / activity at 1 % / activity at 0.1 %: Homo sapiens, 48 hours; for activity at 0.01 %: test substance 0.01 mass % with PMA in olive oil; for Effect on skin irritation mediator production by PMA (in words): summary of Table 1; for activity at 1 %: test substance 1 mass % with PMA in olive oil; for activity at 0.1 %: test substance 0.1 mass % with PMA in olive oil
From the text: Changes in production amounts of skin irritation mediators by test substances were examined when cutaneous irritants were caused to act on a human three-dimensional culture epidermal model.
as §1
As test substances, there were used cholesterol (manufactured by Wako Pure Chemical Industries, Ltd.), β-sitosterol (manufactured by TAMA BIOCHEMICAL CO., LTD.), α-spinasterol (manufactured by ChromaDex, Inc.), ergosterol (manufactured by Wako Pure Chemical Industries, Ltd.), campesterol (manufactured by TAMA BIOCHEMICAL CO., LTD.), glycyrrhizin (manufactured by Wako Pure Chemical Industries, Ltd.), glycyrrhetinic acid (manufactured by Wako Pure Chemical Industries, Ltd.), ginsenoside (manufactured by Wako Pure Chemical Industries, Ltd.), squalene (manufactured by Wako Pure Chemical Industries, Ltd.), squalane (manufactured by Tokyo Chemical Industry Co., Ltd.) and lanosterol (manufactured by ChromaDex, Inc.), which are candidates of a skin irritation suppressant.
As skin irritants, Phorbol 12-Myristate 13-Acetate (PMA, manufactured by Wako Pure Chemical Industries, Ltd.) was used. In addition, as vehicle, olive oil (manufactured by Wako Pure Chemical Industries, Ltd.) was used.
Experiments were conducted by the following group composition. • PMA Only Group: A group with addition of only 0.00001 mol of PMA dispersed in a vehicle, as a test solution. • Test Substance Group: A group with addition of 0.00001 mol of PMA and the test substance which were dispersed in a vehicle, as a test solution.
as §2
Next, a cell survival rate was measured by the MTT method after causing the test solutions of each group to act. Specifically, 50 μL of the test solution of each group was added to the surface of the LabCyte after preculture, was cultured in the incubator with 5% of carbon dioxide concentration at 37° C. for 48 hours, then was transferred to the assay medium comprising 0.5 mg/ml of MTT reagent, and was cultured in the incubator with 5% of carbon oxide level at 37° C. for 3 hours. Then, LabCyte was immersed in 0.3 ml of an isopropanol solution, and the produced blue-purple formazan was extracted for 2 hours. After extraction, an absorbance at 570 nm was measured by a 96 microplate reader. The cell survival rate was calculated as below.
Cell survival rate (%)=(absorbance of Test Substance Group)/(absorbance of PMA Only Group)×100
Subsequently, a production amount of the skin irritation mediator at a test substance concentration with 80% or more of cell survival rate was measured. As skin irritation mediators, PGE2, IL-1α, IL-6, IL-8 were measured.
as §3
Relative production amount=(production amount of the mediator in Test Substance Group)/(production amount of the mediator in PMA Only Group)×100

[3] = system: croton oil-induced mouse ear swelling; experiment: Suppression of croton oil-induced mouse ear swelling reaction (Experiment 3); type: in vivo; conditions: for Inhibition Ratio Of Ear Swelling: ddY female mouse, 1% by mass of test substance in 2% croton oil solution, 25 μL on ears, auricular thickness 6 hours after; for Effect on croton oil-induced mouse ear swelling reaction (in words): summary of Table 3
From the text: <Suppression of Croton Oil-Induced Mouse Ear Swelling Reaction by the Test Substances>
Suppression of mouse ear swelling was examined through the use of croton oil (Wako Pure Chemical Industries, Ltd.) as a swelling inducer. A 7-week-old ddY female mouse (SPF) was subjected to an experiment. As test substances, cholesterol, glycyrrhizin, glycyrrhetinic acid, squalene, ergosterol, squalane and lanosterol were used. As a vehicle, acetone (Wako Pure Chemical Industries, Ltd.) was used.
Experiments were conducted by the following group composition. • Positive Control Group: A group which received only the vehicle as a primary test solution, and one hour after, received a 2% croton oil solution as a secondary test solution. • Test Substance Group: A group in which only the vehicle was administered as a primary test solution, and one hour after, a 2% croton oil solution including 1% by mass of test substance was administered as a secondary test solution.
An inhibition ratio of ear swelling was calculated as below. In this test, a […] inflammation model is used to examine immediate swelling reactions. In accordance with the group composition, 25 μL of the primary test solution was uniformly coated on back sides of both ears in an etherize mouse, and one hour after, 25 μL of the secondary test solution was uniformly coated in accordance with the group composition. Prior to coating of the secondary test solution, a thickness of auricle was measured by DIAL […] GAUGE (OZAKI MFG CO., LTD.). Furthermore, the secondary test solution was administered, and 6 hours after, the auricular thickness was measured in the same way as mentioned above, and an increased amount of the auricular thickness was set by deducting the thickness measured prior to administration of the secondary test solution. The inhibition ratio of ear swelling was calculated as below.
Inhibition ratio of ear swelling (%)=(increased amount of auricular thickness in Test Substance Group−increased amount of auricular thickness in Negative Control Group)/(increased amount of auricular thickness in Positive Control Group−increased amount of auricular thickness in Negative Control Group)×100

[4] = asenapine maleate 0.6% in olive oil
[5] = read-out: Relative Production Amount of Skin Irritation Mediator when Production Amount in PMA Only Group is Set to 100: IL-1α
[6] = read-out: Relative Production Amount of Skin Irritation Mediator when Production Amount in PMA Only Group is Set to 100: IL-6
[7] = read-out: Relative Production Amount of Skin Irritation Mediator when Production Amount in PMA Only Group is Set to 100: IL-8
[8] = read-out: Relative Production Amount of Skin Irritation Mediator when Production Amount in PMA Only Group is Set to 100: PGE2

| SMILES | activity at 0.01 % [2, 5] [%] | activity at 0.01 % [2, 6] [%] | activity at 0.01 % [2, 7] [%] | activity at 0.01 % [2, 8] [%] | Effect on skin irritation mediator production by PMA (in words) [2] | Inhibition Ratio Of Ear Swelling [3] [%] | Effect on croton oil-induced mouse ear swelling reaction (in words) [3] | other results |
| --- | --- | --- | --- | --- | --- | --- | --- | --- |
| CN1CC2c3ccccc3Oc3ccc(Cl)cc3C2C1 (stereo not drawn) [Asenapine, asenapine maleate] | – | – | – | – | – | – | – | Production Amount of Skin Irritation Mediator: IL-1A [1, 4]: 17.24 pg/mL; Production Amount of Skin Irritation Mediator: IL-6 [1, 4]: 0.00 pg/mL; Production Amount of Skin Irritation Mediator: IL-8 [1, 4]: 174.90 pg/mL; Production Amount of Skin Irritation Mediator: PGE2 [1, 4]: 125.85 pg/mL; Production Amount of Skin Irritation Mediator: TNFA [1, 4]: 0.00 pg/mL |
| CC1(C)[C@@H](O)CC[C@]2(C)[C@H]3C(=O)C=C4[C@@H]5C[C@@](C)(C(=O)O)CC[C@]5(C)CC[C@@]4(C)[C@]3(C)CC[C@@H]12 [Glycyrrhetinic Acid, glycyrrhetinic acid] | 77 | 46 | 81 | 48 | exhibited effects of suppressing the skin irritation mediator production by PMA | 53.4 | suppress croton oil-induced mouse ear swelling reaction | – |
| CC1(C)[C@@H](O[C@H]2O[C@H](C(=O)O)[C@@H](O)[C@H](O)[C@H]2O[C@@H]2O[C@H](C(=O)O)[C@@H](O)[C@H](O)[C@H]2O)CC[C@]2(C)[C@H]3C(=O)C=C4[C@@H]5C[C@@](C)(C(=O)O)CC[C@]5(C)CC[C@@]4(C)[C@]3(C)CC[C@@H]12 [Glycyrrhizin, glycyrrhizin] | 85 | 105 | 154 | 114 | exhibited effects of suppressing the skin irritation mediator production by PMA | 34.1 | suppress croton oil-induced mouse ear swelling reaction | – |
| CCCCCCCCCCCC(=O)N(CCO)CCO [LADA, lauric acid diethanolamide] | – | – | – | – | – | – | – | Production Amount of Skin Irritation Mediator: IL-1α ([1]; LADA 0.03% in olive oil): 29.85 pg/mL; Production Amount of Skin Irritation Mediator: IL-6 ([1]; LADA 0.03% in olive oil): 0.00 pg/mL; Production Amount of Skin Irritation Mediator: IL-8 ([1]; LADA 0.03% in olive oil): 160.29 pg/mL; Production Amount of Skin Irritation Mediator: PGE2 ([1]; LADA 0.03% in olive oil): 30.64 pg/mL; Production Amount of Skin Irritation Mediator: TNFα ([1]; LADA 0.03% in olive oil): 0.00 pg/mL |
| CC(C)=CCC[C@@H](C)[C@H]1CC[C@@]2(C)C3=C(CC[C@]12C)[C@@]1(C)CC[C@H](O)C(C)(C)[C@@H]1CC3 [Lanosterol, lanosterol] | – | – | – | – | exhibited effects of suppressing the skin irritation mediator production by PMA | 65.9 | suppress croton oil-induced mouse ear swelling reaction | activity at 1 % [2, 5]: 76%; activity at 1 % [2, 6]: 90%; activity at 1 % [2, 7]: 73%; activity at 1 % [2, 8]: 47% |
| CC(C)CCCC(C)CCCC(C)CCCCC(C)CCCC(C)CCCC(C)C (stereo not drawn) [Squalane, squalane] | – | – | – | – | exhibited effects of suppressing the skin irritation mediator production by PMA | 61.6 | suppress croton oil-induced mouse ear swelling reaction | activity at 0.1 % [2, 5]: 18%; activity at 0.1 % [2, 6]: 55%; activity at 0.1 % [2, 7]: 39%; activity at 0.1 % [2, 8]: 41% |
| CC(C)=CCC/C(C)=C/CC/C(C)=C/CC/C=C(\C)CC/C=C(\C)CCC=C(C)C [Squalene, squalene] | 10 | 0 | 131 | 88 | exhibited effects of suppressing the skin irritation mediator production by PMA | 44.4 | suppress croton oil-induced mouse ear swelling reaction | – |
